Results on 4 compounds are retold here after PubChem BioAssay AID2060340 (Molecular Pharmacology Branch, DTP, NCI, 2025).

Several values for one entry are separate records, joined by “and”; a condition that tells them apart may be missing. Equal values may be shown once.

In this assay the test system is 349418-098-R-PDC spheroids, viability, % test/control. In words: Anticancer human tumor 349418-098-R-PDC patient-derived lung adenocarcinoma cell line growth inhibition [IpAb]. The note with it: spheroids with HUVEC and MSC; for viability, T/C: stronger effect = lower value. From the text:
Combinatorial screen of targeted agents with ipatasertib and abemaciclib in multi-cell type tumor spheroids
A high-throughput screen of multi-cell type tumor spheroids was designed to identify active combinations of targeted small molecules and ipatasertib or abemaciclib. Complex spheroids include a stromal component modeled by human endothelial cells (HUVEC) and fibroblasts modeled by human mesenchymal stem cells (MSCs). The concentration ranges selected for each drug and investigational agent were based upon clinically achievable concentrations if the clinical Cmax of the agent was known.
Compounds. The drugs and investigational agents: ipatasertib (NSC767898), abemaciclib(NSC768073), selumetinib (NSC741078), trametinib (758246), adavosertib (NSC754352), everolimus (NSC733504), sapanisertib (NSC764658), vemurafenib (NSC761431), venetoclax (NSC766270), copanlisib (NSC809693), apelisib (NSC765974), palbociblib (NSC758247), vemurafenib (NSC761431), dabrafenib (NSC764134), ravoxertinib (NSC781343), BMS-387032 (NSC767048), sotorasib (NSC818433), talazoparib (NSC767125) and afursertib (NSC778305), were obtained from the National Cancer Institute (NCI) Developmental Therapeutics Program Chemical Repository. The FDA-approved anticancer drug set is available from the NCI Developmental Therapeutics Program. […] The stock solutions were prepared in dimethyl sulfoxide (DMSO, Sigma-Aldrich, St. Louis, MO, cat. D2650) at 800-fold the tested concentration and stored at -70 degrees C prior to their use. All drugs and investigational agents were tested over a range starting from a high concentration at or near the clinical Cmax and decreasing in half-log increments. If the clinical Cmax for an agent had not been determined, the highest concentration tested was 10 microM.
NCI60 Cell Culture. NCI60 cell lines were obtained from the NCI Developmental Therapeutics Program Tumor Repository. For each lot of cells, the Repository performed Applied Biosystems AmpFLSTR Identifiler testing with PCR amplification to confirm consistency with the published Identifier STR profile for each cell line. Cells were kept in continuous culture for no more than 20 passages. The optimal seeding densities for each of the cell lines at each time point assessed were determined prior to performing the concentration response studies. Briefly, the NCI60 human tumor lines were grown as monolayers in RPMI 1640 medium supplemented with 10% FBS and 2 mmol/L L-glutamine.
An additional 9 lines were from the NCI60 cell line panel including MDA-MB-231 breast carcinoma, MDA-MB-468 breast carcinoma, MCF7 breast carcinoma, Hs578T breast carcinoma, MALME-3M melanoma, SK-MEL-2 melanoma, SK-OV-3 ovarian carcinoma, DU-145 prostate carcinoma, PC-3 prostate carcinoma, all cell lines along with major genetic alterations are listed on Table 2. Pooled donor human umbilical vein endothelial cells (HUVEC, Lonza, cat. CC-2519) and human mesenchymal stem cells (hMSC, Lonza, cat. PT-2501) were purchased from Lonza (Walkersville, MD).
PDMR cell lines were grown in complete medium (DC medium): Dulbecco's modified Eagle's medium (DMEM)/F12 supplemented with 5% fetal bovine serum (FBS), 2 mM L-glutamine, 100 U/mL penicillin and 100 µg/ml streptomycin, 0.4 µg/ml hydrocortisone, 10 ng/ml epidermal growth factor (EGF) recombinant human protein, 24 µg/mL adenine, and 0.1 mg/mL primocin. During culture from frozen stock vials, PDMR cells were cultured in the same medium containing 10 µM Y-27632 (see Table 3). The PDCs were cultured in complete DMEM/F12 media without 10 microM Y-27632 dihydrochloride for at least two passages prior to the screen. The pooled donor HUVEC and hMSC were cultured in endothelial cell growth medium 2 (PromoCell, Heidelberg, Germany, cat. C-22011) and mesenchymal stem cell growth medium 2 (PromoCell, cat. C-28009), respectively. For all experiments, HUVEC and hMSC were used at passages </=5.
[…]
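Further: spheroids exposed to compounds for 7 days.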

As a reminder, the viability, T/C is the ratio of treated to control. For orientation: IC50 means the concentration needed to halve the response being measured. As for `CCN1CCN(Cc2ccc(Nc3ncc(F)c(-c4cc(F)c5nc(C)n(C(C)C)c5c4)n3)nc2)CC1`, the viability, T/C (compound 0.01 µM) is 74.5% [middle of 13 runs]; the viability, T/C (compound 0.0316 µM) is 44.2% [middle of 13 runs]; the viability, T/C (compound 0.1 µM) is 26.4% [middle of 13 runs]; the viability, T/C (compound 0.316 µM) was 19.7% [middle of 12 runs]; the viability, T/C (compound 1 µM) is 15.5% [middle of 13 runs]. For the same compound, where the note is “compound alone, run of 05/18/2021”, the IC50 is 28.5 nM [middle of 12 runs].
With `COc1c(OCCCN2CCOCC2)ccc2c3n(c(=NC(=O)c4cnc(N)nc4)nc12)CCN3`, the viability, T/C was 98.7% and 85.4% (compound 0.00316 µM); 45.2% and 56.9% (compound 0.01 µM); 11.5% and 15.2% (compound 0.0316 µM); 7.98% and 6.59% (compound 0.1 µM); 7.2% and 6.31% (compound 0.316 µM); 6.67% and 5.78% (compound 1 µM). For the same compound, the IC50 (curve of compound) was 9.02 nM and 12.1 nM.
`CC(=O)c1c(C)c2cnc(Nc3ccc(N4CCNCC4)cn3)nc2n(C2CCCC2)c1=O` + CC(C)NCC(C(=O)N1CCN(c2ncnc3c2C(C)CC3O)CC1)c1ccc(Cl)cc1: the IC50 (curve of first compound, second compound 0.1 µM) stood at 8.74 nM; the IC50 (curve of first compound, second compound 0.316 µM) is less than 0.949 nM; the IC50 (curve of first compound, second compound 1 µM) was less than 0.949 nM; the IC50 (curve of first compound, second compound 3.16 µM) was less than 0.949 nM; the concentration for half-maximal inhibition (IC50) (curve of first compound, second compound 10 µM) is less than 0.949 nM. The viability, T/C was 76.3% (second compound 0.1 µM, first compound 0.000949 µM); 74.8% (second compound 0.1 µM, first compound 0.003 µM); 44% (second compound 0.1 µM, first compound 0.00949 µM); 29.3% (second compound 0.1 µM, first compound 0.03 µM); 14.4% (second compound 0.1 µM, first compound 0.0949 µM); 12.1% (second compound 0.1 µM, first compound 0.3 µM). Also, the viability, T/C was 40.5% (second compound 0.316 µM, first compound 0.000949 µM); 43.2% (second compound 0.316 µM, first compound 0.003 µM); 23.8% (second compound 0.316 µM, first compound 0.00949 µM); 15.5% (second compound 0.316 µM, first compound 0.03 µM); 8.84% (second compound 0.316 µM, first compound 0.0949 µM); 8.96% (second compound 0.316 µM, first compound 0.3 µM). Further, the viability, T/C (second compound 1 µM, first compound 0.000949 µM) was 19.5%; the viability, T/C (second compound 1 µM, first compound 0.003 µM) is 13.5%; the viability, T/C (second compound 1 µM, first compound 0.00949 µM) was 9.63%; the viability, T/C (second compound 1 µM, first compound 0.03 µM) was 7.98%; the viability, T/C (second compound 1 µM, first compound 0.0949 µM) was 7.69%; the viability, T/C (second compound 1 µM, first compound 0.3 µM) is 7.53%. The viability, T/C reads like this: (second compound 3.16 µM, first compound 0.000949 µM) 11.4%; (second compound 3.16 µM, first compound 0.003 µM) 9.48%; (second compound 3.16 µM, first compound 0.00949 µM) 8.85%; (second compound 3.16 µM, first compound 0.03 µM) 6.09%; (second compound 3.16 µM, first compound 0.0949 µM) 6.21%; (second compound 3.16 µM, first compound 0.3 µM) 7.07%. In addition, the viability, T/C reads like this: (second compound 10 µM, first compound 0.000949 µM) 7.89%; (second compound 10 µM, first compound 0.003 µM) 6.96%; (second compound 10 µM, first compound 0.00949 µM) 5.33%; (second compound 10 µM, first compound 0.03 µM) 5.56%; (second compound 10 µM, first compound 0.0949 µM) 5.75%; (second compound 10 µM, first compound 0.3 µM) 5.61%.
Take `Cn1nccc1Nc1nccc(-c2ccn(C(CO)c3ccc(Cl)c(F)c3)c(=O)c2)n1` (centres undefined): the viability, T/C is, setting by setting: (compound 0.0316 µM) 50.1% and 54.6%; (compound 0.1 µM) 42.6% and 45.7%; (compound 0.316 µM) 57.2% and 49.9%; (compound 1 µM) 44.4% and 49.7%; (compound 3.16 µM) 29% and 30.1%; (compound 10 µM) 19.7% and 21.3%.
